Measurements published in patent US4141993A, “Compounds of diphenylcyclopentylamine type and methods for their preparation” (priority 1971, dated 1979).
Where two headings read alike, the source gives them in different places.

Experiments:
[1] = tested on: uptake of tritiated noradrenaline; assay: Inhibition of the uptake of tritiated noradrenaline in vitro (cortex slices); assay type: biochemical; details: for Inhibition (50 %) of uptake in vitro, NA: dl-noradrenaline 10^-7 M
Procedure: (§1) 2. Inhibition of the uptake of tritiated noradrenaline in vitro and in vivo
(§2) The method is found in European Journal of Pharmacology 2 (1967), 181- 186. The animals were killed half or one hour after the administration of the drugs in vivo (i.p.). The slices, made from cortex, were preincubated for five minutes and incubated with 0.1 μmole per ml of ^3 H-noradrenaline for further five minutes. The incubation mixture consisted of 0.2 μmole of ^3 H-NA and the brain slices in 2 ml of Krebs-Henseleits buffer, pH 7.4. The radioactive ^3 H-NA taken up in the slices was extracted with ethanol and the amount was determined by liquid scintillation. The dose producing 50 percent decrease of the active uptake (ED50) was determined graphically from dose response curves. At least four animals were used at each dose level.
Inhibition (50 %) of uptake
^2) Na = dl-noradrenaline 10^-7 M

uptake of tritiated 5-HT [2] = assay: Inhibition of the uptake of tritiated 5-HT in vitro (midbrain slices); assay type: biochemical, mice; details: for Inhibition (50 %) of uptake in vitro, 5-HT: 5-hydroxytryptamine 10^-7 M
Procedure: (§3) 1. Inhibition of the uptake of tritiated 5-HT in vitro and in vivo
[…] out and sliced and incubated in a mixture consisting of, per 100 mg of brain slices, […] 2 ml of Krebs-Henseleit buffer, pH 7.4. The incubation time was 5 minutes with 5 minutes of preincubation before ^3 H-5-HT was added. The radioactive ^3 H-5-HT taken up in the slices was extracted with ethanol and the amount was determined by liquid scintillation. […] Active uptake is defined as that part of the radioactive uptake which is inhibited by a high concentration of cocaine. All doses were given at least to four animals.

Acute toxicity in mice = details: mouse, in vivo, iv, within 24 hours
Procedure: (§4) Acute toxicity, behavior and anticholinergic effect (mydriasis) in mice
(§5) The compounds were given by intravenous route to 3 mice. […] Seizures, gait, sedation and grip strength were recorded. […] PD200 is the dose which increases the pupil by 200%.

uptake of tritiated 5-HT [3] = assay: Inhibition of the uptake of tritiated 5-HT in vivo (drug i.p., uptake in midbrain slices); parameters: species or system mice; details: for ED50: Mus musculus, ip, 0.5 h, read-out: Inhibition (50 %) of uptake in vivo, 5-HT (ED50), i.p., half an hour before the animals were killed
Procedure: as §3
The drugs were administered intraperitoneally half an hour before the animals were killed and the midbrain was taken out and sliced and incubated in a mixture consisting of, per 100 mg of brain slices, 0.2 μmole of ^3 H-5-HT and 1 μmole of glucose in 2 ml of Krebs-Henseleit buffer, pH 7.4. The incubation time was 5 minutes with 5 minutes of preincubation before ^3 H-5-HT was added. The radioactive ^3 H-5-HT taken up in the slices was extracted with ethanol and the amount was determined by liquid scintillation. […] Active uptake is defined as that part of the radioactive uptake which is inhibited by a high concentration of cocaine. All doses were given at least to four animals.

Dopa response = Dopa response potentiation test; assay type: in vivo, mice; details: for L-DOPA potentiation, 10 mg/kg i.p., 1h / L-DOPA potentiation, 10 mg/kg i.p., 4h: score, pargyline pretreated; for L-DOPA potentiation, 10 mg/kg i.p., 1h: drug 1 h before 1-Dopa 100 mg/kg i.p.; for L-DOPA potentiation, 10 mg/kg i.p., 4h: drug 4 h before 1-Dopa 100 mg/kg i.p.; for L-DOPA potentiation, entry given as a bound (no score): printed in the 1h column, head 10 mg/kg i.p.
Procedure: Mice in groups of 3 are pretreated with Pargyline® 40 mg/kg p.o. about 10-16 hours before the test. […] 1-Dopa gives a characteristic syndrome which is scored as follows:
1. piloerection, slight salivation, slight increased motor activity
2. piloerection, salivation, marked increased motor activity and irritability
3. piloerection, profuse salivation, marked irritability and reactivity, jumping, squeaking, fighting.
The control groups are Amitriptyline (20 mg/kg i.p. 4 hours before 1-Dopa) and saline (1 hour before 1-Dopa). […] The test drugs were all tested at 10 mg/kg i.p.

mice [4] = assay: Anticholinergic effect (mydriasis) in mice; assay type: in vivo
Procedure: as §4, §5

5-HTP response = 5-HTP response potentiation test; assay type: in vivo, mice; details: 0 = without effect; for 5-HTP potentiation, 25 mg/kg i.p., 1h: drug 1 h before 5-HTP; for 5-HTP potentiation, 25 mg/kg i.p., 4h: drug 4 h before 5-HTP
Procedure: 1. 5-HTP response potentiation test
Inhibition of the uptake of 5-HT potentiates the effects of administered 5-hydroxytryptophane (5-HTP) probably by increasing the amount of 5-HT at the receptor.
These small movements are quantitatively measured in an activity box, type Animex, which can distinguish between small and gross movements. The activity is measured during 20 minutes and only in the case the animals have a fullblown syndrome.

mice [5] = assay: Motor activity in mice (exploratory activity, locomotion cage); assay type: in vivo; details: Mus musculus, ip, 1 h, read-out: Motor activity ID50
Procedure: The exploratory activity of mice was recorded in a locomotion cage in which the movements were counted each time the animals cross-circuit an electrical current in the bottom plate. The activity was recorded for ten minutes one hour after the administration of the drug. The animals were tested individually. Groups of six mice were used and the mice were only used once. The activity was expressed in percent of the activity of control groups ran simultaneously.

[6] = tested on: uptake of tritiated noradrenaline; assay: Inhibition of the uptake of tritiated noradrenaline in vivo (drug i.p., uptake in cortex slices); details: for ED50: ip, 1 h, read-out: Inhibition (50 %) of uptake in vivo, NA (ED50), i.p., half or one hour before the animals were killed; for selectivity towards noradrenaline: uptake inhibition, compared with imipramine
Procedure: as §1
as §2, with “The” for “The method is found in European Journal of Pharmacology 2 (1967), 181- 186. The”

uptake of tritiated 5-HT [7] = assay: Inhibition of the uptake of tritiated 5-HT in vivo (drug i.p., uptake in midbrain slices); parameters: species or system mice
[8] = i.v., 10 minutes after injection, dose which increases the pupil by 200%
[9] = i.p., one hour after administration

| Structure (SMILES) | Inhibition (50 %) of uptake in vitro, NA [1] [µg/mL] | inhibition of uptake of noradrenaline in vitro, in words [1] | Inhibition (50 %) of uptake in vitro, 5-HT (uptake of tritiated 5-HT [2]) [µg/mL] | inhibition of uptake of 5-hydroxytryptamine in vitro, in words (uptake of tritiated 5-HT [2]) | LD50 at 24 h (Acute toxicity in mice) [mg/kg] | ED50 (uptake of tritiated 5-HT [3]) [mg/kg] | L-DOPA potentiation, 10 mg/kg i.p., 1h (Dopa response) | L-DOPA potentiation, 10 mg/kg i.p., 4h (Dopa response) | 5-HTP potentiation, 25 mg/kg i.p., 1h (5-HTP response) | inhibition of uptake of noradrenaline in vivo, in words [6] | Mydriasis PD200 (mice [4]; mouse, in vivo, iv, 10 min) [mg/kg] | ED50 (mice [5]; [9]) [mg/kg] | ED50 [6] [mg/kg] | also measured |
| --- | --- | --- | --- | --- | --- | --- | --- | --- | --- | --- | --- | --- | --- | --- |
| NCC1CCC(c2ccccc2)(c2ccccc2)C1 (stereo not drawn) [PUE 119, 1-aminomethyl-3,3-diphenylcyclopentane] | 0.025 | strongly effective | 0.34 | considerably weaker effect | 22 | > 40 | 1.5 | 1.5 | 0 | Strong inhibition of the uptake of noradrenaline only |  |  |  | Mydriasis PD200 (mice [4]; [8]): 2.5 mg/kg; 5-HTP potentiation, 25 mg/kg i.p., 4h (5-HTP response): 0; ED50 (mice [5]): > 50 mg/kg |
| CN(C)C1CCC(c2ccccc2)(c2ccc(Cl)cc2)C1 (stereo not drawn) [PUN 123, 1-dimethylamino-3-(4-chlorophenyl)-3-phenylcyclopentane] | 1 | potent inhibitors | 1 | potent inhibitors | 30 | 40 |  | 3 | 25 | strong inhibition | < 10 | > 50 | 30 | inhibition of uptake of 5-hydroxytryptamine in vivo, in words (uptake of tritiated 5-HT [3]): strong inhibition; 5-HTP potentiation, 25 mg/kg i.p., 4h (5-HTP response): 0; selectivity towards noradrenaline [6]: substantially nonselective ability towards noradrenaline |
| CN(C)C1CCC(c2ccccc2)(c2ccccc2)C1 (stereo not drawn) [PUB 112, 1-dimethylamino-3,3-diphenylcyclopentane] | 0.4 | potent inhibitors | 0.7 | potent inhibitors | 18 | > 40 | 2.5 | 2 | 25 |  |  |  | 25 | Mydriasis PD200 (mice [4]; [8]): < 1 mg/kg; ED50 (mice [5]): > 50 mg/kg |
| NC1CCC(c2ccccc2)(c2ccc(Cl)cc2)C1 (stereo not drawn) [PUN 122, 1-amino-3-(4-chlorophenyl)-3-phenylcyclopentane] | 0.3 | potent inhibitors | 0.7 | potent inhibitors | 15 | 20 | 3 | 3 | 25 | strong inhibition | > 12.5 | > 50 | 30 | inhibition of uptake of 5-hydroxytryptamine in vivo, in words (uptake of tritiated 5-HT [3]): strong inhibition; uptake inhibition still pronounced after (uptake of tritiated 5-HT [7]): 16 h; time of maximal uptake inhibition (uptake of tritiated 5-HT [7]; uptake inhibition increases with time): four; duration of inhibition of the uptake mechanism compared with imipramine (uptake of tritiated 5-HT [7]; uptake of 5-HT and noradrenaline): much longer time than does the reference substance imipramine; selectivity towards noradrenaline [6]: substantially nonselective ability towards noradrenaline |
| CN(C)CCC=C1c2ccccc2CCc2ccccc21 [Amitriptyline, reference compound] |  |  |  |  |  |  |  |  |  |  |  |  |  | Dopa response score of control (Dopa response; 20 mg/kg i.p. 4 hours before 1-Dopa): three |
| COc1ccc(C2(c3ccccc3)CCC(N)C2)cc1 (stereo not drawn) [PUT 104, 1-amino-3-(4-methoxyphenyl)-3-phenylcyclopentane] | 1 | potent inhibitors | 0.5 | potent inhibitors | > 40 | > 40 |  |  | > 25 |  | > 40 |  | > 40 | L-DOPA potentiation, entry given as a bound (no score) (Dopa response): > 10 |
| CNCC1CCC(c2ccccc2)(c2ccccc2)C1 (stereo not drawn) [PUE 122, 1-methylaminomethyl-3,3-diphenylcyclopentane] | 0.05 | strongly effective | 4.2 | considerably weaker effect | 15 | > 40 | 3 | 3 | 0 | Strong inhibition of the uptake of noradrenaline only | > 12.5 | > 50 | 5.5 |  |
| NC1CCC(c2ccc(Cl)cc2)(c2ccc(Cl)cc2)C1 (stereo not drawn) [PUT 108, 1-amino-3,3-di(4-chlorophenyl)cyclopentane] | 2.5 |  | 1 |  | 23 | > 40 |  |  | > 25 |  | > 23 | > 50 | > 40 | L-DOPA potentiation, entry given as a bound (no score) (Dopa response): > 10 |
| CN(C)CC1CCC(c2ccccc2)(c2ccccc2)C1 (stereo not drawn) [PUE 117, 1-dimethylaminomethyl-3,3-diphenylcyclopentane] | 2.3 |  | 3.6 |  | 30 | > 40 | 3 | 1.5 | 0 |  |  |  | 17 | Mydriasis PD200 (mice [4]; [8]): < 1 mg/kg; ED50 (mice [5]): > 50 mg/kg |
| CNC1CCC(c2ccccc2)(c2ccc(Cl)cc2)C1 (stereo not drawn) [PUN 125, 1-methylamino-3-(4-chlorophenyl)-3-phenylcyclopentane] | 1 |  | 2 |  |  | > 40 | 1 | 1 | 0 |  |  |  | > 40 |  |
| CNC1CCC(c2ccccc2)(c2ccccc2)C1 (stereo not drawn) [PUB 107, 1-methylamino-3,3-diphenylcyclopentane] | 0.7 | potent inhibitors | 1 | potent inhibitors | 30 | > 40 | 2 | 2 | 0 |  | 15 | > 50 | 20 |  |
